Data from patent US4131681A, “Antiallergic method” (Fujisawa Pharmaceutical Co., Ltd., priority 1977, dated 1978).
Counter-ions that a name gives are not always drawn.

Key:
[1] = test system: passive cutaneous anaphylaxis (P.C.A.) reaction; assay: Antagonism to passive cutaneous anaphylaxis (P.C.A.) in rat; type: in vivo, rat (male Sprague-Dawley-JCL); conditions: for ED50: Rattus norvegicus
Description: (1) Preparation of antiserum
(a) Rat reaginic antiserum against egg albumin
One mg of egg albumin emulsified in 0.5 ml of B. pertussisdiphtheria mixed vaccine (Tanabe Seiyaku Company Ltd.) and 0.5 ml of Freund's incomplete adjuvant (Difco) was used as the antigen. The emulsion was given subcutaneously in a single dose of 1 ml divided equally (0.25 ml) to the four foot pads of male Sprague-Dawley JCL strain rats aged 6 weeks, each weighing 170-220 g. Blood samples were collected from the femoral artery 12 days after injection, and centifuged at 3000 r.p.m. at 4° C. for 15 minutes. The antisera thus obtained were stored at -20° C.
(2) antagonism to passive cutaneous anaphylaxis (P.C.A.) in rat
Ten male Sprague-Dawley-JCL strain rats, weighing 290-310 g, were used for each dose. The rat reaginic antiserum against egg albumin was used at a dilution 1:4. The animals were sensitized with 0.1 ml of the antiserum injected intracutaneously on the depilated backs of the rats. Fortyeight hours after the injection of the antiserum, 1 ml of mixture of egg albumin 5 mg and Evans' blue 5 mg in physiological saline 1 ml was injected intravenously. Thirty minutes after the injection of the antigen, animals were sacrificed and the skin was removed. To each sensitized area of the skin was added 10 ml of a 4:1 mixture of acetone and 2% solution of RBS-25 (Marumoto Industrial Co., Ltd.) to extract the dye and the mixture was allowed to stand for 16 hours, during of which the mixture was twice shaken for 30 minutes at 5th hour and 16th hour. It was further centrifuged at 2,000 r.p.m. for 15 minutes and the quantity of the dye in the supernatant solution was determined by colorimetry at […]. Each test compound was given orally 2 hours and intravenously 5 minutes before administration of the antigen. The inhibitory effect of each test compound was determined from the dye amounts measured in comparison with the control group and the treated group and the ED50 value was calculated according to Litchfield-Wilcoxon method.

[2] = test system: passive cutaneous anaphylaxis (P.C.A.) reaction; assay: Antagonism to passive cutaneous anaphylaxis (P.C.A.) in guinea-pig; type: in vivo, guinea-pig (male Hartley); conditions: for ED50: Cavia porcellus
Description: (b) Guinea-pig antiserum against egg albumin
Five mg of egg albumin emulsified in 0.5 ml of physiological saline and 0.5 ml of Freund's incomplete adjuvant was used as the antigen.
The amulsion was given subcutaneously in a single dose of 1 ml divided equally (0.25 ml) to the four foot pads of male Hartley strain guinea pigs, each weighing 250 to 300 g. Starting two weeks after dosing with the aforementioned emulsion, 0.1% egg albumin emulsified in physiological saline was given subcutaneously in equally divided (0.1 ml) doses of 0.4 ml once a week for 4 weeks to four sites on the backs of the test animals. Blood samples were collected from the carotid artery one week after the last injection, and centrifuged at 3000 r.p.m. at room temperature for 15 minutes. The antisera thus obtained were stored at -20° C.
(3) Antagonism to passive cutaneous anaphylaxis (P.C.A) in guinea-pig
Ten male Hartley strain guinea-pigs, weighing 300-350 g, were used for each dose. The animals were sensitized with 0.1 ml of the guinea-pig antiserum against egg albumin injected intracutaneously on the depilated backs of the animals. Four hours after injection of the antiserum, 1 ml of mixture of egg albumin […] and Evan's blue […] in physiological saline was injected intravenously. Thirty minutes after the injection of the antigen, the animals were sacrificed and the skin was removed. Each test compound was given orally 2 hours and intravenously 5 minutes before administration of the antigen. Each sensitized area of the skin was treated substantially in the same manner as that of the above mentioned test (2) to calculate ED50 value.

anaphylactic asthma = assay: Antagonism to anaphylactic asthma in guinea-pigs; type: in vivo, guinea-pig (male Hartley); conditions: for Inhibitory effect of anaphylactic asthma in guinea-pig: survival more than 2 hours after antigen spray
[3] = test system: Bradykinin-induced bronchoconstruction; assay: Antagonism to Bradykinin-induced bronchoconstruction in guinea-pigs; type: in vivo, guinea-pig (male Hartley); conditions: for Inhibitory effect of Bradykinin-induced bronchoconstruction in guinea-pig: 30 seconds before Bradykinin; for ED50: Cavia porcellus, iv, 30 seconds before Bradykinin 16 mg/kg i.v., Litchfield-Wilcoxon
Description: (5) Antagonism to Bradykinin-induced bronchoconstruction in guinea-pigs
Ten male Hartley strain guinea-pigs were used for each dose. The animals were immobilized with an intraperitoneal dose of 100 mg/kg of gallamine. The trachea was cannulated and the lungs were dilated with air by a respiration pump at the rate of 3 ml/time and 60.2 times/minute. Bradykinin 16 mg/kg was given intravenously and bronchoconstruction induced thereby was measured by Tanbule Strain gauge according to Konzett-Rossler method. The inhibitory effect against bronchoconstruction was determined in comparison with the control group and the treated group, and the ED50 value was measured according to Litchfield-Wilcoxon method. Each test compound was given intravenously 30 seconds before administration of the Bradykinin.

Acute toxicity in mouse = conditions: in vivo, 7 days
Description: (§1) (6) Acute toxicity in mouse and rat
(§2) Each ten male and female ICR-JCL strain mice and Sprague-Dawley-JCL strain rats were used for each dose.
(§3) Each test compound was given to animals in a form of suspension in 0.5% methyl cellose intraperitoneally, subcutaneously and orally. After administration, the incidence of the death was recorded for successive seven days. LD50 values were calculated by the method of Litchfield-Wilcoxon method.

Acute toxicity in rat = conditions: in vivo, 7 days
Description: as §1, §2, §3

[4] = iv, 5 min, i.v., 5 minutes before antigen, Litchfield-Wilcoxon
[5] = i.v., 4 mg/kg, 5 minutes before antigen
[6] = i.v., 16 mg/kg, 5 minutes before antigen
[7] = i.v., 64 mg/kg, 5 minutes before antigen
[8] = p.o., 32 mg/kg, 2 hours before antigen
[9] = p.o., 125 mg/kg, 2 hours before antigen
[10] = p.o., 500 mg/kg, 2 hours before antigen
[11] = iv, 5 min, i.v., 5 minutes before antigen

| SMILES | ED50 [1, 4] [mg/kg] | Inhibitory effect of P.C.A. reaction in rat [1, 5] [%] | Inhibitory effect of P.C.A. reaction in rat [1, 6] [%] | Inhibitory effect of P.C.A. reaction in rat [1, 7] [%] | Inhibitory effect of P.C.A. reaction in rat [1, 8] [%] | Inhibitory effect of P.C.A. reaction in rat [1, 10] [%] | ED50 [2, 11] [mg/kg] | ED50 ([2]; po, 2 hours before antigen) [mg/kg] | Inhibitory effect of P.C.A. reaction in guinea-pig [2, 5] [%] | Inhibitory effect of P.C.A. reaction in guinea-pig [2, 6] [%] | Inhibitory effect of P.C.A. reaction in guinea-pig [2, 7] [%] | Inhibitory effect of P.C.A. reaction in guinea-pig [2, 8] [%] | Inhibitory effect of P.C.A. reaction in guinea-pig [2, 9] [%] | Inhibitory effect of P.C.A. reaction in guinea-pig [2, 10] [%] | Inhibitory effect of Bradykinin-induced bronchoconstruction in guinea-pig ([3]; 1 mg/kg i.v.) [%] | Inhibitory effect of Bradykinin-induced bronchoconstruction in guinea-pig ([3]; 4 mg/kg i.v.) [%] | ED50 [3] [mg/kg] | LD50 at 168 h (Acute toxicity in mouse; po, female) [mg/kg] | LD50 at 168 h (Acute toxicity in mouse; po, male) [mg/kg] | LD50 at 168 h (Acute toxicity in rat; po, female) [mg/kg] | other results |
| --- | --- | --- | --- | --- | --- | --- | --- | --- | --- | --- | --- | --- | --- | --- | --- | --- | --- | --- | --- | --- | --- |
| O=C(Cn1c(=O)sc2ccc(Cl)cc21)N1CCC(O)CC1 [Compound A, 3-(4-hydroxypiperidino)carbonylmethyl-5-chloro-2-benzothiazolinone] | 56.6 | 22.6 | 41.5 | 49.1 | 20.8 | 62.3 | 29.1 | 202 | 15.5 | 32.9 | 68.9 | 33.5 | 31.7 | 67.4 | 89 | 91 | 0.278 | > 8000 | > 8000 | > 8000 | ED50 ([1]; po, 2 hours before antigen, Litchfield-Wilcoxon): 348 mg/kg; Inhibitory effect of P.C.A. reaction in rat [1, 9]: 20.8%; Inhibitory effect of anaphylactic asthma in guinea-pig (anaphylactic asthma; 4 mg/kg i.v.): 0%; Inhibitory effect of anaphylactic asthma in guinea-pig (anaphylactic asthma; 16 mg/kg i.v.): 90%; Inhibitory effect of anaphylactic asthma in guinea-pig (anaphylactic asthma; 64 mg/kg i.v.): 100%; ED50 (anaphylactic asthma; Cavia porcellus, iv, 2 h, i.v., anaphylactic asthma, Litchfield-Wilcoxon, read-out: ED50 (dose required for 50% protection from death)): ~8.5 mg/kg; Inhibitory effect of Bradykinin-induced bronchoconstruction in guinea-pig ([3]; 0.064 mg/kg i.v.): 12%; Inhibitory effect of Bradykinin-induced bronchoconstruction in guinea-pig ([3]; 0.25 mg/kg i.v.): 50%; LD50 at 168 h (Acute toxicity in mouse; ip, female): > 8000 mg/kg; LD50 at 168 h (Acute toxicity in mouse; ip, male): > 8000 mg/kg; LD50 at 168 h (Acute toxicity in mouse; sc, female): > 8000 mg/kg; LD50 at 168 h (Acute toxicity in mouse; sc, male): > 8000 mg/kg; LD50 at 168 h (Acute toxicity in rat; ip, female): 5800 mg/kg; LD50 at 168 h (Acute toxicity in rat; ip, male): 7110 mg/kg; LD50 at 168 h (Acute toxicity in rat; po, male): > 8000 mg/kg; LD50 at 168 h (Acute toxicity in rat; sc, female): > 8000 mg/kg; LD50 at 168 h (Acute toxicity in rat; sc, male): > 8000 mg/kg |
| O=C(Cn1c(=O)sc2ccc(Cl)cc21)N1CCN(CCO)CC1 [Compound D, 3-[4-(2-hydroxyethyl)-1-piperazinylcarbonylmethyl]-5-chloro-2-benzothiazolinone hydrochloride] | – | – | – | – | – | – | 46.8 | 594 | 7.4 | 19.4 | 60.6 | -8.2 | 6.1 | 43.4 | 44 | 94 | 0.813 | 622 | 564 | 3800 | Inhibitory effect of Bradykinin-induced bronchoconstruction in guinea-pig ([3]; 0.064 mg/kg i.v.): -14%; Inhibitory effect of Bradykinin-induced bronchoconstruction in guinea-pig ([3]; 0.25 mg/kg i.v.): 27%; Inhibitory effect of Bradykinin-induced bronchoconstruction in guinea-pig ([3]; 16 mg/kg i.v.): 99% |
| O=C(O)c1cc(=O)c2c(OCC(O)COc3cccc4oc(C(=O)O)cc(=O)c34)cccc2o1 [Compound C, disodium chromoglycate] | 73.2 | 24.1 | 55.6 | 41.4 | -16.1 | 9.4 | – | – | 11.4 | 18.4 | -2.2 | -25.4 | 24.6 | – | 12 | 28 | > 16 | > 11000 | > 11000 | > 11000 | ED50 (P.C.A. reaction in rat) ([1]; p.o., 2 hours before antigen, Litchfield-Wilcoxon): No effect; Inhibitory effect of anaphylactic asthma in guinea-pig (anaphylactic asthma; 4 mg/kg i.v.): 0%; Inhibitory effect of anaphylactic asthma in guinea-pig (anaphylactic asthma; 16 mg/kg i.v.): 0%; Inhibitory effect of anaphylactic asthma in guinea-pig (anaphylactic asthma; 64 mg/kg i.v.): 10%; ED50 (dose required for 50% protection from death) (anaphylactic asthma; i.v., anaphylactic asthma, Litchfield-Wilcoxon): No effect; Inhibitory effect of Bradykinin-induced bronchoconstruction in guinea-pig ([3]; 16 mg/kg i.v.): 24%; LD50 at 168 h (Acute toxicity in rat; po, male): > 11000 mg/kg |
